One test deals with T1, human σ1 receptor (Homo sapiens, UniProt Q99720).
T1 construct: expressed in transfected cells; host or cells: HEK-293
The test can be described thus: Human σ1 receptor radioligand assay ([3H](+)-pentazocine). Particulars: transfected HEK-293 membranes, 5 nM [3H](+)-pentazocine, 37° C., 120 minutes; read-out: Binding σ-[…] (binding to σ1-receptor expressed as Ki). In kind it is binding. As for the experimental part:
Human σ1 Receptor Radioligand Assay
(§1) NBS (non-specific binding) was measured by adding 10 μM haloperidol. The binding of the test compound was measured at either one concentration (% inhibition at 1 or 10 µM) or five different concentrations to determine affinity values (Ki). Plates were incubated at 37° C. for 120 minutes. After the incubation period, the reaction mix was then transferred to MultiScreen HTS, FC plates (Millipore), filtered and plates were washed 3 times with ice-cold 10 mM Tris-HCL (pH7.4). Filters were dried and counted at approximately 40% efficiency in a MicroBeta scintillation counter (Perkin-Elmer) using EcoScint liquid scintillation cocktail.

The target in the next test is T2, human σ2/TMEM97 receptor (Homo sapiens, UniProt Q5BJF2).
T2 construct: expressed in transfected cells; host or cells: HEK-293
T2 sequence (Q5BJF2 whole entry): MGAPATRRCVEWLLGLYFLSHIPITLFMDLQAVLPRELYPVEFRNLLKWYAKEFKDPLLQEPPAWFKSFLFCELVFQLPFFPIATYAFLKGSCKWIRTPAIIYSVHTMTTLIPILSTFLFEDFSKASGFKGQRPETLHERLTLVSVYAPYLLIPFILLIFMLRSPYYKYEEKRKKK
The experiment in a line: Binding assay to human σ2/TMEM97 receptor ([3H]-DTG). The following applies: transfected HEK-293 membranes, 10 nM [3H]-DTG, 25° C., 120 minutes; read-out: Binding σ-[…] (binding to σ2-receptor expressed as Ki). As for the experimental part: Binding Assay to Human σ2/TMEM97 Receptor.
as §1, with “Transfected HEK-293 membranes (15 μg) were incubated with 10 nM [^3H]-1,3-Di-o-tolylguanidine (DTG) in assay buffer containing Tris-HCl 50 mM at pH 8.0. NSB” for “NBS”, “25°” for “37°”, “was” for “was then”, “and” for “and plates were”, “(pH 8.0).” for “(pH7.4).”

The results in this text go back to patent US20240174671A1, “New 2,3-Dihydro-1H-pyrrolo[3,2-b]pyridine Derivatives as Sigma Ligands” (ACONDICIONAMIENTO TARRASENSE, priority 2021, published 2024).

SMILES strings stand for the structures. Some results are limits rather than exact numbers.

T1 sequence (Q99720 whole entry): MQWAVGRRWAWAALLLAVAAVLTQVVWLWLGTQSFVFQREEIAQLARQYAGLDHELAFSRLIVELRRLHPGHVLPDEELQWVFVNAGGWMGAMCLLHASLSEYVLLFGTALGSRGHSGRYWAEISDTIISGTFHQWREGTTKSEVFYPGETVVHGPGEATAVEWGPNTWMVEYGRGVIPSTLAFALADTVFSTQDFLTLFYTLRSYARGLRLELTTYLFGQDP

On to `Cc1ccc2c(n1)C(C)(C)CN2C(=O)NC1CCN(Cc2cccc(Cl)c2)CC1` [Example 55, N-(1-(3-chlorobenzyl)piperidin-4-yl)-3,3,5-trimethyl-2,3-dihydro-1H-pyrrolo[3,2-b]pyridine-1-carboxamide], for which the Ki (in general, a measure of affinity in units of concentration, obtained from inhibition or displacement) is < 100 nM at human σ1 receptor and 100 to 500 nM on human σ2/TMEM97 receptor.

Turning to `Cc1ccc2c(n1)C(C)(C)CN2C(=O)N1CCC(N(C)Cc2cccc(S(C)(=O)=O)c2)CC1` [Example 56, (4-(methyl(3-(methylsulfonyl)benzyl)amino)piperidin-1-yl)(3,3,5-trimethyl-2,3-dihydro-1H-pyrrolo[3,2-b]pyridin-1-yl)methanone], the Ki at human σ1 receptor is > 1000 nM; at human σ2/TMEM97 receptor it was 500 to 1000 nM.

Regarding `Cc1ccc2c(n1)C(C)(C)CN2C(=O)N1CCC2(CCN(Cc3ccccc3)CC2)CC1` [Example 57, (9-benzyl-3,9-diazaspiro[5.5]undecan-3-yl)(3,3,5-trimethyl-2,3-dihydro-1H-pyrrolo[3,2-b]pyridin-1-yl)methanone], the inhibitory constant (Ki) at human σ1 receptor and on human σ2/TMEM97 receptor was < 100 nM each time.

As for `COc1ccc(CN(C)C2CCN(C(=O)N3CC(C)(C)c4nc(C)ccc43)CC2)cc1` [Example 58, (4-((4-methoxybenzyl)(methyl)amino)piperidin-1-yl)(3,3,5-trimethyl-2,3-dihydro-1H-pyrrolo[3,2-b]pyridin-1-yl)methanone], the Ki on human σ1 receptor and at human σ2/TMEM97 receptor was 100 to 500 nM each time.

Regarding `COc1cccc(CN(C)C2CCN(C(=O)N3CC(C)(C)c4nc(C)ccc43)CC2)c1` [Example 59], the Ki at human σ1 receptor was 500 to 1000 nM; on human σ2/TMEM97 receptor it was < 100 nM.

Consider `Cc1ccc2c(n1)C(C)(C)CN2C(=O)N1CCC(N(C)Cc2ccc(F)c(C#N)c2)CC1` [Example 60, 2-fluoro-5-((methyl(1-(3,3,5-trimethyl-2,3-dihydro-1H-pyrrolo[3,2-b]pyridine-1-carbonyl)piperidin-4-yl)amino)methyl)benzonitrile], for which the Ki on human σ1 receptor is 100 to 500 nM; on human σ2/TMEM97 receptor it was < 100 nM.

Turning to `CN(Cc1ccccc1)[C@H]1CCCN(C(=O)N2CCc3ncccc32)C1` [Example 61, (S)-(3-(benzyl(methy)amino)piperidin-1-yl)(2,3-dihydro-1H-pyrrolo[3,2-b]pyridin-1-yl)methanone], the Ki on human σ1 receptor was > 1000 nM; at human σ2/TMEM97 receptor it was < 100 nM.

`CN(CCc1ccccc1)[C@H]1CCN(C(=O)N2CCc3ncccc32)C1` [Example 62, (S)-(2,3-dihydro-1H-pyrrolo[3,2-b]pyridin-1-yl)(3-(methyl(phenethyl)amino)pyrrolidin-1-yl)methanone]: the Ki is > 1000 nM on human σ1 receptor and 500 to 1000 nM at human σ2/TMEM97 receptor.

Turning to `Cc1ccc2c(n1)C(C)(C)CN2C(=O)N1CCC(N(C)Cc2cccc(C(=O)N(C)C)c2)CC1` [Example 63, N, N-dimethyl-3-((methyl(1-(3,3,5-trimethyl-2,3-dihydro-1H-pyrrolo[3,2-b]pyridine-1-carbonyl)piperidin-4-yl)amino)methyl)benzamide], the Ki on human σ1 receptor and on human σ2/TMEM97 receptor was > 1000 nM throughout.

For `CC(C)CCN(C)[C@H]1CCCN(C(=O)N2CCc3ncccc32)C1` [Example 64, (S)-(2,3-dihydro-1H-pyrrolo[3,2-b]pyridin-1-yl)(3-(isopentyl(methy)amino)piperidin-1-yl)methanone], the Ki at human σ1 receptor and on human σ2/TMEM97 receptor was < 100 nM throughout.

As to `Cc1ccc2c(n1)C(C)(C)CN2C(=O)N1CCC(N(C)CC2CCOCC2)CC1` [Example 65, (4-(methyl((tetrahydro-2H-pyran-4-yl)methyl)amino)piperidin-1-yl)(3,3,5-trimethyl-2,3-dihydro-1H-pyrrolo[3,2-t]pyridin-1-yl)methanone], the Ki on human σ1 receptor is 100 to 500 nM; at human σ2/TMEM97 receptor, < 100 nM.

Regarding `Cc1ccc2c(n1)C(C)(C)CN2C(=O)N1CCC(CN(C)Cc2ccccc2)CC1` [Example 66, (4-((benzyl(methyl)amino)methyl)piperidin-1-yl)(3,3,5-trimethyl-2,3-dihydro-1H-pyrrolo[3,2-b]pyridin-1-yl)methanone], the Ki at human σ1 receptor and at human σ2/TMEM97 receptor was 100 to 500 nM in each case.

As to `Cc1ccc2c(n1)C(C)(C)CN2C(=O)N1CCC(N(C)CCC(C)C)CC1` [Example 67, (4-(isopentyl(methyl)amino)piperidin-1-yl)(3,3,5-trimethyl-2,3-dihydro-1H-pyrrolo[3,2-b]pyridin-1-yl)methanone], the Ki on human σ1 receptor and on human σ2/TMEM97 receptor was < 100 nM in each case.

For the compound `Cc1ccc2c(n1)C(C)(C)CN2C(=O)N1CCC(N(C)Cc2ccc(N(C)C)cc2)CC1` [Example 68, (4-((4-(dimethylamino)benzyl)(methyl)amino)piperidin-1-yl)(3,3,5-trimethyl-2,3-dihydro-1H-pyrrolo[3,2-b]pyridin-1-yl)methanone], the Ki at human σ1 receptor was 100 to 500 nM; at human σ2/TMEM97 receptor, < 100 nM.

As to `CC1(C)CN(C(=O)NCC2CCN(Cc3ccccc3)CC2)c2cccnc21` [Example 69, N-((1-benzylpiperidin-4-yl)methyl)-3,3-dimethyl-2,3-dihydro-1H-pyrrolo[3,2-b]pyridine-1-carboxamide], the inhibitory constant (Ki) on human σ1 receptor and at human σ2/TMEM97 receptor was 100 to 500 nM in each case.

Regarding `CC1(C)CN(C(=O)NCC2CCN(CCc3ccccc3)CC2)c2cccnc21` [Example 70, 3,3-dimethyl-N-((1-phenethylpiperidin-4-yl)methyl)-2,3-dihydro-1H-pyrrolo[3,2-b]pyridine-1-carboxamide], the figures for the Ki at human σ1 receptor and at human σ2/TMEM97 receptor were > 1000 nM and 100 to 500 nM, respectively.

On to `CN(Cc1ccccc1)[C@H]1CC[C@H](NC(=O)N2CC(C)(C)c3ncccc32)CC1` [Example 71, N-((1r,4r)-4-(benzyl(methyl)amino)cyclohexyl)-3,3-dimethyl-2,3-dihydro-1H-pyrrolo[3,2-b]pyridine-1-carboxamide], for which the inhibition constant (Ki) at human σ1 receptor was > 1000 nM; at human σ2/TMEM97 receptor, < 100 nM.

With `CN(Cc1ccccc1)[C@H]1CC[C@@H](NC(=O)N2CC(C)(C)c3ncccc32)CC1` [Example 72, N-((1s,4s)-4-(benzyl(methyl)amino)cyclohexyl)-3,3-dimethyl-2,3-dihydro-1H-pyrrolo[3,2-b]pyridine-1-carboxamide], the Ki at human σ1 receptor and at human σ2/TMEM97 receptor was < 100 nM each time.

In the case of `Cc1ccc2c(n1)C(C)(C)CN2C(=O)N1CCC(N(C)Cc2ccccn2)CC1` [Example 73, (4-(methyl(pyridin-2-ylmethyl)amino)piperidin-1-yl)(3,3,5-trimethyl-2,3-dihydro-1H-pyrrolo[3,2-b]pyridin-1-yl)methanone], the Ki is > 1000 nM at human σ1 receptor and 500 to 1000 nM at human σ2/TMEM97 receptor.

As for `Cc1ccc2c(n1)C(C)(C)CN2C(=O)N1CCC(N(C)Cc2cccnc2)CC1` [Example 74, (4-(methyl(pyridin-3-ylmethyl)amino)piperidin-1-yl)(3,3,5-trimethyl-2,3-dihydro-1H-pyrrolo[3,2-b]pyridin-1-yl)methanone], the Ki on human σ1 receptor was > 1000 nM; at human σ2/TMEM97 receptor it was 500 to 1000 nM.

Take `Cc1ccc2c(n1)C(C)(C)CN2C(=O)N1CCC(N(C)Cc2ccncc2)CC1` [Example 75, (4-(methyl(pyridin-4-ylmethyl)amino)piperidin-1-yl)(3,3,5-trimethyl-2,3-dihydro-1H-pyrrolo[3,2-b]pyridin-1-yl)methanone]: the inhibition constant (Ki) on human σ1 receptor was > 1000 nM; on human σ2/TMEM97 receptor it was 500 to 1000 nM.
